Our source for the interfacial tension values is the NIST ThermoML archive (doi:10.1016/j.fluid.2010.02.022).

The conditions of this data set: 101 kPa, Liquid, Pendant drop method.

Structures are written as SMILES. ± gives the expanded uncertainty stated by the source.

Regarding `CCCCn1cc[n+](C)c1.O=S(=O)([O-])C(F)(F)F` [1-butyl-3-methylimidazolium trifluoromethanesulfonate] + CCCCCCCCCC, the interfacial tension is on record as 10.79 ± 0.13 mN/m (293 K); 10.67 ± 0.13 mN/m (298 K); 10.56 ± 0.13 mN/m (303 K); 10.44 ± 0.13 mN/m (308 K); 10.31 ± 0.13 mN/m (313 K).
